In US9675593B2, “Anti-fibrotic pyridinones” (InterMune, Inc., priority 2012, dated 2017):

Each compound was assayed on TGF-b induced Endothelin-1 (ET-1) production (assay: ET-1 assay: inhibitory effect on TGF-b induced endothelin-1 production). Conditions: Homo sapiens, Fibroblast; fibroblasts, stimulant (TGFb, serum, LPA etc), ET-1 by ELISA.
Assay type: cell-based
Procedure: Assay of Inhibitory Effect on TGF-b induced Endothelin-1 Production
Fibroblasts (primary human lung and dermal, HFL-1, 3T3 etc) are seeded in 96-well plates at ˜15000 cells/well and serum starved for 0-48 hours. After media exchange, compounds serially diluted in DMSO are added to the cells. After a brief incubation of ˜30 min, stimulants (TGFb, serum, LPA etc) are added followed by further incubation for 16-48 hours. Media is then harvested and stored frozen in plate format for later endothelin-1 (ET-1) determination by ELISA. Toxicity measurements are made using the ATPlite kit (Perkin-Elmer). ET-1 is quantified using an ELISA kit (R&D Systems). The amount of ET-1 produced in the assay wells are back-calculated using the ELISA standard. The ability of a compound to inhibit ET-1 production is typically analyzed by fitting dose-response curves to a 4-parameter logistic function to obtain an EC50 value. A measure of cytotoxicity (CC50) is likewise reported from the same experiment using the ATPlite data.
In the case of `O=C(Nc1cc(=O)n(-c2ccc(OC(F)(F)F)cc2)cc1-c1ccc(F)cc1)Oc1ccccc1` [Compound 113], the EC50 is reported as greater than 200 µM.
With `Cc1cc(-c2cnn(C)c2)cn(-c2ccc(OC(F)(F)F)cc2)c1=O` [Compound 352] the EC50 was 50 to 200 µM.
`O=c1ccc(-c2ccnnc2)cn1-c1ccc(OC(F)(F)F)cc1` [Compound 347] showed an EC50 of 50 to 200 µM.
